Reference: article PMC6105598, “Targeting protein-protein interactions for therapeutic discovery via FRET-based high-throughput screening in living cells” (Scientific Reports, 2018)
“And” between values parts separate entries of the source, which are not always exact repeats. Equal entries are not always repeated. Where two headings read alike, the source gives them in different places.

What was measured:
[1] = biological target: T1, skeletal SR (SERCA1a only) (Oryctolagus cuniculus, UniProt P04191); assay: Ca-ATPase activity of skeletal SR (SSR), NADH-linked enzyme-coupled assay; type: biochemical, rabbit; conditions: for EC50 / Vmax @ 30 µM / ΔVmax @ 30 µM / percent change in Vmax vs DMSO control at 30 µM: SSR; for Vmax @ 30 µM / ΔVmax @ 30 µM / percent change in Vmax vs DMSO control at 30 µM: 30 µM compound; for ΔVmax @ 30 µM / percent change in Vmax vs DMSO control at 30 µM: relative to DMSO control; for percent change in Vmax vs DMSO control at 30 µM: read-out: ΔVmax @ 30 µM
T1 construct: Skeletal muscle SR membrane vesicles were isolated from longissimus dorsi obtained from New Zealand white rabbits; from tissue; host or cells: rabbit longissimus dorsi skeletal muscle, SR membrane vesicles
Experimental: (§1) To further examine the functional effects of Hit compounds, Ca-ATPase assays were performed on both skeletal SR (SERCA1a only) and cardiac SR (SERCA2a + PLB) at a series of Ca concentrations ranging from pCa 5 to 8.
(§2) Skeletal muscle SR membrane vesicles were isolated from longissimus dorsi obtained from New Zealand white rabbits, as previously described. Cardiac SR membrane vesicles were isolated from ventricular myocardium obtained from fresh pig hearts. All experimental protocols were reviewed and approved by University of Minnesota’s Institutional Animal Care and Use Committee, an Association for Assessment and Accreditation of Laboratory Animal Care institution.
(§3) An enzyme-coupled, NADH-linked ATPase assay was used to measure SERCA ATPase activity in 96-well microplates. Each well contained 0.8 μg (skeletal) or 2 μg (cardiac) of SR vesicles adjusted for the different SERCA contents of skeletal and cardiac SR, 50 mM MOPS (pH 7.0), 100 mM KCl, 5 mM MgCl2, 1 mM EGTA, 0.2 mM NADH, 1 mM phosphoenol pyruvate, 10 IU/mL of pyruvate kinase, 10 IU/mL of lactate dehydrogenase, 3.5 μg/mL of the Ca ionophore A23187, and CaCl2 added to set free [Ca] to the desired values. The assay was started upon the addition of ATP at a final concentration of 5 mM and read in a SpectraMax Plus microplate spectrophotometer rom Molecular Devices (Sunnyvale, CA).

[2] = biological target: T2, cardiac SR (SERCA2a + PLB) (Sus scrofa, UniProt P11607); assay: Ca-ATPase activity of cardiac SR (CSR), NADH-linked enzyme-coupled assay; type: biochemical, pig; conditions: for Vmax @ 30 µM / ΔVmax @ 30 µM: 30 µM compound; for ΔVmax @ 30 µM: relative to DMSO control
T2 construct: Cardiac SR membrane vesicles were isolated from ventricular myocardium obtained from fresh pig hearts; from tissue; host or cells: pig ventricular myocardium, SR membrane vesicles
Experimental: as §1, with “To characterize the relationship between the structural readout (FRET) and the functional effects, in vitro Ca-ATPase assays were performed on cardiac SR (which contains both SERCA2a and PLB). […] To” for “To”
as §2, §3

[3] = biological target: SERCA2a-PLB complex (GFP-SERCA2a / RFP-PLB in HEK293 cells) (Homo sapiens, UniProt P16615+P26678, C36A/C41F/C46A); assay: SERCA2a-PLB TR-FRET (fluorescence lifetime) biosensor assay in living cells; type: cell-based; design: expressed in transfected cells; host or cells: HEK293; conditions: for ΔFLT: compound incubation for 20 min, uncertainty (1 S.D.) 11 ps; for direction of FRET change of the SERCA2a-PLB biosensor: concentration-response 0.01-100 µM
[4] = biological target: GFP-SERCA2a (eGFP fused to the N-terminus of human cardiac sarcoplasmic reticulum Ca-ATPase SERCA2a) (human) (UniProt P16615); assay: FRET or BRET; time-resolved FRET (donor fluorescence lifetime) in saponin-permeabilized HEK293 cells, high Ca (10 µM); also tested with 100 nM thapsigargin, which prevents the Ca-dependent decrease in FRET
[5] = biological target: GFP-SERCA2a (eGFP fused to the N-terminus of human cardiac sarcoplasmic reticulum Ca-ATPase SERCA2a) (human) (UniProt P16615); assay: FRET or BRET; time-resolved FRET (donor fluorescence lifetime, plate reader) in live HEK293 cells co-expressing GFP-SERCA2a (donor) and increasing amounts of RFP-PLB (acceptor); value at saturating acceptor
[6] = biological target: GFP-SERCA2a (eGFP fused to the N-terminus of human cardiac sarcoplasmic reticulum Ca-ATPase SERCA2a) (human) (UniProt P16615); assay: FRET or BRET; time-resolved FRET (donor fluorescence lifetime) in saponin-permeabilized HEK293 cells, low Ca (100 nM); also tested with 100 nM thapsigargin
[7] = concentration-response 0.01-100 µM compound, live HEK293 cells

T1 sequence (P04191 1-994 isoform P04191-2): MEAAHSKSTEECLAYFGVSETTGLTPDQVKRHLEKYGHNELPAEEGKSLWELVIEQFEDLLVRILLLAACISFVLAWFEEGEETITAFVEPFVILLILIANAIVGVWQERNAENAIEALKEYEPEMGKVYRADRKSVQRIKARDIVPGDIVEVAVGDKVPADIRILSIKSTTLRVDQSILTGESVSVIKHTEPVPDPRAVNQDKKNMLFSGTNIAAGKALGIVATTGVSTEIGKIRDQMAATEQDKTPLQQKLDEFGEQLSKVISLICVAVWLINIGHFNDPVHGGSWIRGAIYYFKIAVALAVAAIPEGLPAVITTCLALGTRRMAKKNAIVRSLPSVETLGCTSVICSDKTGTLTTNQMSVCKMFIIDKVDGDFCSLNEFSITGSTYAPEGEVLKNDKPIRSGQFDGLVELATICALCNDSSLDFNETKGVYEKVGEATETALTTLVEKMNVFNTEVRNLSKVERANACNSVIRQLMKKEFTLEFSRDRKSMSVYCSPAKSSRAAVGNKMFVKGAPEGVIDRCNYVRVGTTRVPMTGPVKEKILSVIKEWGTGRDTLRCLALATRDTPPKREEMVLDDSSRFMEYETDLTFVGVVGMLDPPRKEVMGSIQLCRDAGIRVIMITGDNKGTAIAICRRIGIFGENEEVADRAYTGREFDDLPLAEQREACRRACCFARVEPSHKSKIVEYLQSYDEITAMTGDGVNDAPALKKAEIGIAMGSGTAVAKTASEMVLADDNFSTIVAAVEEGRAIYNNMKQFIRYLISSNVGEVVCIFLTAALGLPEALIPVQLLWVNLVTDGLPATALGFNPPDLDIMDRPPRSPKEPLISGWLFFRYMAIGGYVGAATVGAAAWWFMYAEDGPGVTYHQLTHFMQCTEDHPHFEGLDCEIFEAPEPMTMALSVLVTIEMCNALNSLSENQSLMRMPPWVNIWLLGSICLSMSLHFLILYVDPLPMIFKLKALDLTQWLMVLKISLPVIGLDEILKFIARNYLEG
Sequence of SERCA2a-PLB complex (GFP-SERCA2a / RFP-PLB in HEK293 cells) (P16615 1-997 isoform P16615-2, stated change not applied): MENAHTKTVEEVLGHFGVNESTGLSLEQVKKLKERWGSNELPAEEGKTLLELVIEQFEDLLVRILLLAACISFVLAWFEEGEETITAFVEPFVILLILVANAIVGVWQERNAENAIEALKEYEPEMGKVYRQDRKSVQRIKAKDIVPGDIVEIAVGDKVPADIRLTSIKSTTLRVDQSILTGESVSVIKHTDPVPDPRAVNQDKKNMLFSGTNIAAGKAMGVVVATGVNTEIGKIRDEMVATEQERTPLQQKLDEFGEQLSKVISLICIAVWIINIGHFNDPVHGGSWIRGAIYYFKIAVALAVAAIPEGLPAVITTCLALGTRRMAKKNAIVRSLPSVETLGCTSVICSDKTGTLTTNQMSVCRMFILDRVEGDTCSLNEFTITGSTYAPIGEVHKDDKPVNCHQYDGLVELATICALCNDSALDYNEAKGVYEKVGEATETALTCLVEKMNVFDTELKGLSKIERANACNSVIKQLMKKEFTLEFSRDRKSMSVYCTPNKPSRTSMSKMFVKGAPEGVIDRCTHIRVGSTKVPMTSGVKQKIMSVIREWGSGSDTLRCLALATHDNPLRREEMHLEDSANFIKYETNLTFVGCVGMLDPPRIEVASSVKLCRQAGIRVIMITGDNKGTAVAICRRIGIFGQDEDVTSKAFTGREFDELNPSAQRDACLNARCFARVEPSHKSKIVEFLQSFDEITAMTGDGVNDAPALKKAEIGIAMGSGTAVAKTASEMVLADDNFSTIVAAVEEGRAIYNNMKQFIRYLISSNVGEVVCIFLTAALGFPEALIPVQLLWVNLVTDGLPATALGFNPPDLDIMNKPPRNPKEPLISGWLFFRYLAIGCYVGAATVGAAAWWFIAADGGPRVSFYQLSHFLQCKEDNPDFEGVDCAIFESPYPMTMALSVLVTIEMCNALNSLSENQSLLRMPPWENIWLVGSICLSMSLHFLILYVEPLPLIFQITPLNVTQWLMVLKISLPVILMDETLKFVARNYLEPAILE
Sequence of SERCA2a-PLB complex (GFP-SERCA2a / RFP-PLB in HEK293 cells) (P26678 whole entry C36A/C41F/C46A, the tested form may be a part): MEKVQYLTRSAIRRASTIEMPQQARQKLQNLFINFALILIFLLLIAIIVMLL
Sequence of GFP-SERCA2a (eGFP fused to the N-terminus of human cardiac sarcoplasmic reticulum Ca-ATPase SERCA2a) (human) (P16615 other isoform, or with tags, fused parts or gaps): as the sequence (P16615 1-997 isoform P16615-2, stated change not applied) above
T2 sequence (P11607 1-997 isoform P11607-2): as the sequence (P16615 1-997 isoform P16615-2, stated change not applied) above, with R371K, N403K, S538P, L570M, H576N, D667E, A713S, S865T, I889V, V963L counted along it
T2 sequence (P61013 whole entry partner): as the sequence (P26678 whole entry C36A/C41F/C46A, the tested form may be a part) above, with E2D, K27N, A36C, F41C, A46C counted along it
Sequence of RFP-PLB (tagRFP fused to the N-terminus of a monomeric mutant of human phospholamban) (P26678 whole entry C36A/C46A, change not shown, the tested form may be a part): as the sequence (P26678 whole entry C36A/C41F/C46A, the tested form may be a part) above, with F41C counted along it

Molecule	EC50 [1]	Vmax @ 30 µM [1] [i.u.]	ΔVmax @ 30 µM [1] [%]	Vmax @ 30 µM ([2]; CSR) [i.u.]	ΔVmax @ 30 µM ([2]; CSR) [%]	EC50 ([2]; CSR, read-out: EC50 Vmax) [µM]	ΔFLT ([3]; final concentration 10 µM) [ps]	ΔFLT ([3]; final concentration 100 µM) [ps]	EC50 [3, 7] [µM]	percent change in Vmax vs DMSO control at 30 µM [1] [%]	also measured
CCCCCCCCCCCCCCCC(=O)OC(CC(=O)O)C[N+](C)(C)C.[Cl-] (racemic) [Palmitoyl-DL-carnitine chloride]	12.2 µM	0.57	-78.1	0.22	-67.1	16.1	50	189	24.9		
CCc1ccc(/C=C2/SC(=S)NC2=O)cc1 [10058-F4]		2.63	0.5	0.63	-7.5		17	-11			
CC(C)(C)c1ccc(/C=C/C(=O)Nc2ccc3c(c2)OCCO3)cc1 [AMG9810]		2.62	0.1	0.68	0.1		6	-1			
CCCCN(CC)c1nc(C)nc2c1c(C)cn2-c1c(C)cc(C)cc1C [CP 154526]	2.5 µM and 2.47 µM	3.40		0.91	34.4	1	48	185	9.3	35	increase of Vmax ([1]; skeletal SR): 35%; increase of Vmax ([2]; cardiac SR): 34%; direction of FRET change of the SERCA2a-PLB biosensor [3]: decrease in FRET
CN1CCC[C@@H]1Cc1c[nH]c2ccc(Nc3ncccc3[N+](=O)[O-])cc12 [CP-135807]		2.67	2.1	0.65	-3.8		-70	-390	> 100		
Clc1ccc(C(c2ccc(Cl)cc2)n2cc[n+](CC(OCc3ccc(Cl)cc3Cl)c3ccc(Cl)cc3Cl)c2)cc1 (stereo not shown) [Calmidazolium]	7.43 µM	0.01		0.08	-88.7	15.9	45	-192	26.3	-99.5	
CCOc1nc2cccc(C(=O)OC(C)OC(=O)OC3CCCCC3)c2n1Cc1ccc(-c2ccccc2-c2nnn[nH]2)cc1 (stereo not shown) [Candesartan cilexetil]	7.42 µM	0.41		0.17	-75.3	11.7	70	181	20.1	-84.5	
CNC(=O)c1cc2c(cn1)[nH]c1ccccc12 [FG7142]		2.63	0.5	0.67	-0.7		4	10			
COC(=O)c1c(C)[nH]c(C)c1C(=O)c1ccccc1Cc1ccccc1 [FPL 64176]		2.64	0.7	0.52	-23.0		19	47	> 100		
Oc1ccc(/C=C/c2ccc(/C=C/c3ccc(O)cc3)c(Br)c2)cc1 [K114]	3.53 µM	0.32	-87.9	0.11	-83.7	6.7	-16	-102	41.3		
Cc1[nH]c(=O)c(C#N)cc1-c1ccc2nccn2c1 [Olprinone]		2.70		0.68	-0.1		36	254	> 100	3	
O=C(Nc1cccnc1)N1CCC(Cc2cccc(Oc3ccc(C(F)(F)F)cn3)c2)CC1 [PF3845]		2.61		0.48	-28.3		30	38		-0.2	EC50 [3]: 3.2 µM
CC1=C(/C=C/C(C)=C/C=C/C(C)=C/C(=O)O)C(C)(C)CCC1 [Retinoic Acid]		2.34		0.42	-37.8	11.2	27	-31	65.5	-10.6	
O=C(c1cc(O)c(O)c([N+](=O)[O-])c1)c1ccccc1F [Ro 41-0960]	9.78 µM	1.44	-45.1	0.53	-20.9		-26	-152	22.5		effect on Ca affinity in skeletal SR ([1]; even at the highest compound concentrations): no effect; EC50 ([2]; cardiac SR (SERCA2a + PLB), read-out: EC50 of the increase in Ca affinity (pKCa)): 23 µM; increase of Ca-ATPase activity at pCa 6.4 ([2]; cardiac SR, pCa 6.4, 24 µM compound): 44%; Ca affinity (pKCa) in cardiac SR with compound ([2]; increased from 6.05 (control), concentration-dependent, up to 64 µM): 6.45; direction of FRET change of the SERCA2a-PLB biosensor [3]: increase in FRET
C=C(C)[C@H]1Cc2c(ccc3c2O[C@@H]2COc4cc(OC)c(OC)cc4[C@@H]2C3=O)O1 [Rotenone]		2.64		0.53	-22.0					0.7	
CN=c1nc(-c2ccccc2)n(-c2ccccc2)s1 [SCH 202676]	0.9 µM	0.07	-97.3	0.22	-68.2	1.4	36	35	1.8		decrease of Vmax ([1]; skeletal SR): 97%; decrease of Vmax ([2]; cardiac SR): 68%; direction of FRET change of the SERCA2a-PLB biosensor [3]: decrease in FRET
Brc1c(Br)c(Br)c2n[nH]nc2c1Br [TBB]		2.66	1.6	0.49	-27.2		31	63	73.2		
NC(=O)N1C(=O)/C(=C(\O)c2cccs2)c2cc(Cl)ccc21 [Tenidap]		2.66		0.66	-1.7		8	-68		1.8	EC50 [3]: > 100 µM
RFP-PLB (tagRFP fused to the N-terminus of a monomeric mutant of human phospholamban) (from UniProt P26678 1-52) (natural protein)											FRET efficiency E [4]: 0.11; maximum FRET efficiency E [5]: 0.103; FRET efficiency E [6]: 0.14
